Active and inactive are the calls of the source. No cut-off for these calls is given here.
Columns and labels:
[1] = Inhibition of calcineurin phosphatase activity in human Jurkat cells by Western blot analysis; format: cell-based
[2] = Inhibition of calcineurin phosphatase activity (unknown origin); parameters: species or system Homo sapiens
Vero [3] = assay: Inhibition of calcineurin in Candida albicans harboring sap9/10delta mutant assessed as change in CNB1 expression measured during invasion of African green monkey Vero cells at 5 uM after 18 hrs by RT-qPCR analysis (reference value: -1.67)
Vero [4] = assay: Inhibition of calcineurin in Candida albicans harboring sap9/10delta mutant assessed as change in CNB1 expression measured during invasion of African green monkey Vero cells at 5 uM after 8 hrs by RT-qPCR analysis relative to control
Vero [5] = assay: Inhibition of calcineurin in Candida albicans harboring sap9delta mutant assessed as change in CNB1 expression measured during invasion of African green monkey Vero cells at 5 uM after 18 hrs by RT-qPCR analysis (reference value: -4.39)
Vero [6] = assay: Inhibition of calcineurin in Candida albicans CAI4 assessed as change in CNB1 expression measured during invasion of African green monkey Vero cells at 5 uM after 18 hrs by RT-qPCR analysis (reference value: -3.66); format: cell-based
Candida albicans [7] = assay: Antifungal activity against Candida albicans harboring cnb1delta/CNB1 mutant infected in Galleria mellonella larvae assessed as increase in larvae survival at 0.64 ug/mg measured within 5 days; format: functional, organism-based; conditions: dose 0.64 µg/mg, time 5.0 day
[8] = Toxicity in Galleria mellonella infected with Candida albicans harboring cnb1delta/CNB1 assessed as effect on melanization at 0.64 microg/mg pre-treated with compound for 1 hr followed by fungal infection by hematoxylin and eosin staining based analysis; conditions: dose 0.64 µg/mg
Candida albicans [9] = assay: Antifungal activity against Candida albicans CAI4 infected in Galleria mellonella larvae assessed as increase in larvae survival at 0.64 ug/mg measured within 5 days; format: functional, organism-based; conditions: time 5.0 day
[10] = Toxicity in Galleria mellonella infected with Candida albicans harboring cnb1delta/CNB1 assessed as effect on haemocyte aggregation at 0.64 microg/mg pre-treated with compound for 1 hr followed by fungal infection by hematoxylin and eosin staining based analysis
[11] = Toxicity in Galleria mellonella infected with Candida albicans harboring cnb1delta/CNB1 assessed as formation of nodules at 0.64 microg/mg infected with fungi followed by compound treatment for 1 hr by hematoxylin and eosin staining based analysis; conditions: dose 0.64 µg/mg
[12] = Toxicity in Galleria mellonella infected with Candida albicans CAI4 assessed as haemocyte aggregation in tracheal walls at 0.64 microg/mg infected with fungi followed by compound treatment for 1 hr by hematoxylin and eosin staining based analysis; conditions: dose 0.64 µg/mg
Candida albicans [13] = assay: Decrease in chitin level in Candida albicans harboring cnb1delta/CNB1 mutant by measuring staining index at 20 uM after 18 hrs by calcofluor White staining based flow cytometry analysis; format: functional
Candida albicans [14] = assay: Reduction in Candida albicans SC5314 adhesion to epithelium expressing wild-type SAP9/10 at 20 uM; format: functional, organism-based
Candida albicans [15] = assay: Reduction in Candida albicans SC5314 adhesion to epithelium expressing wild-type SAP9/10 at 5 uM; format: functional, organism-based
Candida albicans [16] = assay: Reduction in Candida albicans adhesion to epithelium expressing SAP9/10 mutant relative to control; format: functional; parameters: scale not given: the % may be the effect or the level left
Candida albicans [17] = assay: Induction of necrosis in Candida albicans by flow cytometry analysis; format: functional
Candida albicans [18] = assay: Induction of cell membrane permeabilization in Candida albicans by flow cytometry analysis; format: functional, organism-based
Candida albicans [19] = assay: Induction of apoptosis in Candida albicans at sub-MIC; format: functional, organism-based
Candida albicans [20] = assay: Induction of apoptosis in Candida albicans harboring cnb1delta mutant at 20 uM; format: functional, organism-based
Candida albicans [21] = assay: Induction of apoptosis in wild type Candida albicans SC5314 at 20 uM; format: functional
Candida albicans [22] = assay: Inhibition of calcineurin catalytic activity in Candida albicans at 5 uM
Candida albicans [23] = assay: Antibiofilm activity against Candida albicans at 5 to 20 uM; format: functional, organism-based; conditions: dose microM 5-20

C=CC[C@@H]1/C=C(\C)C[C@H](C)C[C@H](OC)[C@H]2O[C@@](O)(C(=O)C(=O)N3CCCC[C@H]3C(=O)O[C@H](/C(C)=C/[C@@H]3CC[C@@H](O)[C@H](OC)C3)[C@H](C)[C@@H](O)CC1=O)[C@H](C)C[C@@H]2OC [TACROLIMUS ANHYDROUS]
IC50 [1]: 2 nM | IC50 [2]: 0.4 nM

CC(Cn1cnc2c1c(=O)n(C)c(=O)n2C)OCc1cn(CCCn2nc3c(Br)c(Br)c(Br)c(Br)c3n2)nn1 (stereo not drawn)
fold change (FC) (Vero [3]): -4.52 | fold change (FC) (Vero [4]): -2.38 | fold change (FC) (Vero [5]): 0.24 | fold change (FC) (Vero [6]): -2.98 | Activity (Candida albicans [7]): Active | Activity [8]: Non-Toxic | Activity (Candida albicans [9]): Active | Activity [10]: Non-Toxic | Activity [11]: Non-Toxic | Activity [12]: Toxic | Activity (Candida albicans [13]): Active | Activity (Candida albicans [14]): Active | Activity (Candida albicans [15]): inactive | Activity (Candida albicans [16]): 100% | Activity (Candida albicans [17]): Dose-dependent effect | Activity (Candida albicans [18]): Dose-dependent effect | Activity (Candida albicans [19]): Active | Activity (Candida albicans [20]): Active | Activity (Candida albicans [21]): Active | inhibition (Candida albicans [22]): Active | Activity (Candida albicans [23]): Active
